In patent US10676721B2, “Bacteriophages expressing antimicrobial peptides and uses thereof” (priority 2009, dated 2020):

How the values were obtained:
[1] = Toxicity of AMPs (Table 3, method not described); parameters: unit not given here; details: two values per AMP
[2] = system: E. coli; assay: MIC of AMPs against E. coli; assay type: cell-based, Escherichia coli; details: Table 3; two values per AMP
[3] = system: S. aureus; assay: Exponential phase OD600 AMP killing assay on S. aureus; assay type: cell-based, Staphylococcus aureus; details: concentration not singled out (192 and 640 μg/mL tested)
Experimental: (§1) 1. Inoculate the appropriate host strain in LB medium with the appropriate selective marker and incubate with shaking at 37° C. overnight. 2. Re-dilute the culture 1:5000 into LB with the appropriate selective marker and grow at 300 rpm and 37° C. to an OD600 between 0.2 and 0.4.3. Add the appropriate amount of AMP or bacteriophage to the wells, running at least duplicate samples, preferably triplicates, and always carrying a no treatment control to control for phage contamination. 4. Sample points every 5 minutes using an automated 96-well assay plate capable heated and shaking plate reader.
(§2) The inventors tested a panel of AMPs, shown in Table 3 to assess which AMP has the greatest bacteriocidality against both E. coli and S. aureus. Cultures were grown to an optical density measured at 600 nm between 0.3-0.6 and then the AMPs were added in the respective concentrations. The decrease in OD600 is assessed as the killing of bacterial cells by the AMP, if the OD600 drops, other results cannot be inferred, as the information gained is from the OD600 is limited. The abbreviation SA denotes tests on Staphylococcus aureus, whereas EC denotes Escherichia coli bacteria. Experiments were run in duplicate. The nomenclature of these graphs follows the pattern: Strain.AMP.Concentration(μg/mL).replicate #(1 or 2). […]

[4] = system: E. coli; assay: Exponential phase OD600 AMP killing assay on E. coli; assay type: cell-based, Escherichia coli; details: concentration not singled out (192 and 640 μg/mL tested)
Experimental: as §1, §2

[5] = system: S. aureus; assay: MIC of AMPs / enzyme against S. aureus; assay type: cell-based, Staphylococcus aureus; details: Table 3; two values per AMP

J589_A7: AMP, RLCRIVVIRVCR (SEQ ID NO: 10) (listed as Bos taurus)
Toxicity [1]: 256 | MIC E. coli [2]: 64 µg/mL | bacteriocidal / bacteriostatic action on S. aureus (OD600) [3]: no effects | bacteriocidal / bacteriostatic action on E. coli (OD600) [4]: intermediate bacteriocidal action | MIC S. aureus [5]: 64 µg/mL
